# Results published in patent US20240358727A1, “MICROSCALE THERMOPHORESIS TO EVALUATE CHANNEL LIPID INTERACTIONS AND METHODS OF TREATING NAV CHANNELS RELATED DISEASES” (Northeastern University, priority 2023, published 2024).
# “Also recorded” adds a separate entry of the source.
# Key:
# [1] = molecular target: T1, Nav1.5 channel currents (INa, ILATE) in M3q iPS-CMs (Homo sapiens, UniProt Q14524); experiment: Whole-cell patch-clamp of INa and ILATE in M3q-DREADD iPS-CMs activated with CNO; format: cell-based; conditions: for effect on CNO-evoked increase in ILATE / effect on CNO-evoked leftwards shifts in V½ACT and V½SSI: 200 μM diC8-PIP2 in pipette; for effect on CNO (M3q activation) effects on V½ACT, V½SSI and ILATE: staurosporine 1 μM 1-hour preincubation, BAPTA 10 mM in pipette, U73122 5 μM, diC8-PIP2 200 μM in pipette
# T1 construct: host or cells: human iCell^2 iPS cardiomyocytes (transfected with M3q DREADD in A5; endogenous AT1 receptor in A7)
# Method: (§1) Control is CNO application to cells with no M3q. Mean±SD % fluorescence change for 20 cells per group; an example photobleaching montage is inset. […] Leftwards shifts in each parameter are precluded by U73122 or by 200 μM diC8-PIP2 in the pipette but are not sensitive to staurosporine or BAPTA. The cells were perfused with an extracellular solution containing (in mM): 130 NaCl, 5 CsCl, 1.2 MgCl2, 1.5 CaCl2), 8 Glucose, 10 HEPES (pH7.4). […] nitrendipine was added to the recording solution to block Ca^2+ flux through Cav channels. Patch pipettes with a resistance of 2.5-4 MQ are filled with a solution containing (in mM): 60 CsCl, 80 CsF, 2 MgCl2, 10 EGTA, 5 Na2ATP, 5 HEPES (pH 7.4). Currents were low pass (Bessel) filtered at 9 kHz and digitized at 50 kHz and were collected from cells with a series resistance <15 MQ; this was compensated by 70%.
# Results. Studies are designed to evaluate if hydrolysis of PIP2 modulates Nav1.5 channel currents in cardiomyocytes. To perform these experiments, we used human iPS cardiomyocytes (iCell^2 iPS-CMs) from Fuji-Film Cellular Dynamics. These iPS-CMs are a valuable model system for human cardiomyocytes that retain many of the key characteristics of the native cells. Here, we transfected the iPS-CMs to express the Gαq-coupled M3q Designer Receptors Exclusively Activated by Designer Drugs (DREADD) receptor. We use a magnetic transfection system from Oz Biosciences that we have previously employed with cardiomyocytes. First, we tested the efficacy of M3q to hydrolyze PIP2 in our model system. To accomplish this, we studied uncoupling of the PIP2 biosensor iRFP-PHPLCδ1 from the plasma membrane in response to chemogenic activation of M3q by 100 nM clozapine N-oxide (CNO, Tocris Biosciences).
# These findings are consistent with our prior observations and the work using optogenetically activated PI-phosphatases to deplete PIP2 in HEK293 cells […] Xenopus laevis oocytes. […] Having established a time frame for PIP2 hydrolysis in our system, we used whole-cell patch-clamp to study INa in paired experiments, before and after chemogenic activation of M3q. Applying 100 nM CNO evoked a leftward shift in the current-voltage (I-V) relationship of INa such that peak INa shifted from −25 to −35 mV. At −35 mV, the peak current-density increased from −220±5 pA/pF to −266±4 pA/pF at −35 mV (n=8, P<0.001, paired Student's t-test). […] However, in contrast to our findings with Nav1.4, activating M3q signaling also left-shifted the steady state inactivation curve of Nav1.5 (V½SSI), from −81.4±2 to −89.7±2 mV (n=8, P<0.01, paired t-test; FIGS. 2C, 2D). These studies indicate that Nav1.5 channels are regulated by hydrolysis of PIP2 and that there are distinctions between PIP2 regulation of Nav1.5 and Nav1.4.
# Next, we studied the effect of M3q-activation on ILATE by recording currents evoked by a 400 ms depolarizing pulse to −20 mV before and during receptor activation. The magnitude of ILATE represents the mean current 150-200 ms after peak INa and is expressed as a percentage of peak INa. […] The effects of M3q activation on V½ACT, V½SSI, and the development of ILATE were not affected by staurosporine (1 μM, 1-hour preincubation) or BAPTA (10 mM in the recording pipette), making a role for IP3 or DAG unlikely. […] Similar data were obtained for Nav1.5 expressed with Navβ1 and the M3q-DREADD receptor in HEK293T cells. This experiment validates that the findings are not restricted to a particular model system or cellular environment.
# Measure modulation in INa and ILATE by endogenous Gαq signaling. Like native cardiomyocytes, human iPS-CMs express AT1 receptors. Here, the effects of Ang II (Tocris) on Nav1.5 channel function in iPS-CMs is tested using four whole-cell patch-clamp recording protocols. […]
# [2] = test system: PIP2 hydrolysis (iRFP-PHPLCδ1 biosensor); experiment: TIRFM uncoupling of PIP2 biosensor iRFP-PHPLCδ1 from the membrane of M3q iPS-CMs; format: cell-based, human; conditions: 100 nM CNO
# Method: as §1
# Results. Studies are designed to evaluate if hydrolysis of PIP2 modulates Nav1.5 channel currents in cardiomyocytes. To perform these experiments, we used human iPS cardiomyocytes (iCell^2 iPS-CMs) from Fuji-Film Cellular Dynamics. These iPS-CMs are a valuable model system for human cardiomyocytes that retain many of the key characteristics of the native cells. Here, we transfected the iPS-CMs to express the Gαq-coupled M3q Designer Receptors Exclusively Activated by Designer Drugs (DREADD) receptor. […]
# [3] = test system: Nav1.5 channel currents (INa, ILATE) in iPS-CMs; experiment: Whole-cell patch-clamp of INa and ILATE in iPS-CMs treated with Ang II; format: cell-based, human; conditions: 100 nM Ang II
# Method: Control is CNO application to cells with no M3q. Mean±SD % fluorescence change for 20 cells per group; an example photobleaching montage is inset. […] The cells were perfused with an extracellular solution containing (in mM): 130 NaCl, 5 CsCl, 1.2 MgCl2, 1.5 CaCl2), 8 Glucose, 10 HEPES (pH7.4). […] nitrendipine was added to the recording solution to block Ca^2+ flux through Cav channels. Patch pipettes with a resistance of 2.5-4 MQ are filled with a solution containing (in mM): 60 CsCl, 80 CsF, 2 MgCl2, 10 EGTA, 5 Na2ATP, 5 HEPES (pH 7.4). Currents were low pass (Bessel) filtered at 9 kHz and digitized at 50 kHz and were collected from cells with a series resistance <15 MQ; this was compensated by 70%.
# The data are mean±sem for 4 cells per experiment.
# Measure modulation in INa and ILATE by endogenous Gαq signaling. Like native cardiomyocytes, human iPS-CMs express AT1 receptors. Here, the effects of Ang II (Tocris) on Nav1.5 channel function in iPS-CMs is tested using four whole-cell patch-clamp recording protocols. Recording solutions and amplifier settings are described in the legend of FIG. 2: • i) I-V (and G-V): The current-voltage (I-V) relationship reports on current-density across the physiological voltage range and provides a conductance voltage (G-V) relationship that is normalized and fitted with a Boltzmann function to illustrate the voltage-dependence of activation, V½ACT. • ii) SSI: a paired-pulse protocol to determine the voltage-dependence of steady-state inactivation (SSI). The prepulse is incrementally depolarized while the test-pulse remains at a fixed amplitude. […] This parameter is studied using paired steps to −30 mV and incrementally increasing the duration between the pulses. • iv) ILATE is studied using 400 ms depolarizing pulses to −20 mV. The pulse is repeated every 10 seconds for the duration of a time-course study. Subsequently, the cell is exposed to the state-dependent, late-current blocker ranolazine at 1 μM, as previously described. The magnitude of ILATE represents the mean current 150-200 ms after peak INa and is expressed as a percentage of peak INa, following ranolazine subtraction. The time course of a change in ILATE and the change in the time constant of fast inactivation are evaluated.
# In each case, Nav1.5 currents is studied before and after the administration of Ang II. […] Next, we study the concentration-dependence of these effects, spanning the pathophysiological range (20-200 nM). Utilizing a non-saturating concentration of Ang II, we introduce pharmacological tools to determine the effects on Nav1.5 function attributable to PIP2 hydrolysis. […] Subsequently, we block PIP2 hydrolysis using the PLCβ inhibitor, U73122 (5 μM, Tocris Biosciences). […] We test if downstream products of PIP2 hydrolysis alter Nav1.5 currents using the PKC inhibitor staurosporine (1 μM, 1-hour preincubation, Sigma-Aldrich) and the Ca^2+ chelator, BAPTA (10 mM in the pipette, Sigma-Aldrich).
# T1 sequence (Q14524 whole entry): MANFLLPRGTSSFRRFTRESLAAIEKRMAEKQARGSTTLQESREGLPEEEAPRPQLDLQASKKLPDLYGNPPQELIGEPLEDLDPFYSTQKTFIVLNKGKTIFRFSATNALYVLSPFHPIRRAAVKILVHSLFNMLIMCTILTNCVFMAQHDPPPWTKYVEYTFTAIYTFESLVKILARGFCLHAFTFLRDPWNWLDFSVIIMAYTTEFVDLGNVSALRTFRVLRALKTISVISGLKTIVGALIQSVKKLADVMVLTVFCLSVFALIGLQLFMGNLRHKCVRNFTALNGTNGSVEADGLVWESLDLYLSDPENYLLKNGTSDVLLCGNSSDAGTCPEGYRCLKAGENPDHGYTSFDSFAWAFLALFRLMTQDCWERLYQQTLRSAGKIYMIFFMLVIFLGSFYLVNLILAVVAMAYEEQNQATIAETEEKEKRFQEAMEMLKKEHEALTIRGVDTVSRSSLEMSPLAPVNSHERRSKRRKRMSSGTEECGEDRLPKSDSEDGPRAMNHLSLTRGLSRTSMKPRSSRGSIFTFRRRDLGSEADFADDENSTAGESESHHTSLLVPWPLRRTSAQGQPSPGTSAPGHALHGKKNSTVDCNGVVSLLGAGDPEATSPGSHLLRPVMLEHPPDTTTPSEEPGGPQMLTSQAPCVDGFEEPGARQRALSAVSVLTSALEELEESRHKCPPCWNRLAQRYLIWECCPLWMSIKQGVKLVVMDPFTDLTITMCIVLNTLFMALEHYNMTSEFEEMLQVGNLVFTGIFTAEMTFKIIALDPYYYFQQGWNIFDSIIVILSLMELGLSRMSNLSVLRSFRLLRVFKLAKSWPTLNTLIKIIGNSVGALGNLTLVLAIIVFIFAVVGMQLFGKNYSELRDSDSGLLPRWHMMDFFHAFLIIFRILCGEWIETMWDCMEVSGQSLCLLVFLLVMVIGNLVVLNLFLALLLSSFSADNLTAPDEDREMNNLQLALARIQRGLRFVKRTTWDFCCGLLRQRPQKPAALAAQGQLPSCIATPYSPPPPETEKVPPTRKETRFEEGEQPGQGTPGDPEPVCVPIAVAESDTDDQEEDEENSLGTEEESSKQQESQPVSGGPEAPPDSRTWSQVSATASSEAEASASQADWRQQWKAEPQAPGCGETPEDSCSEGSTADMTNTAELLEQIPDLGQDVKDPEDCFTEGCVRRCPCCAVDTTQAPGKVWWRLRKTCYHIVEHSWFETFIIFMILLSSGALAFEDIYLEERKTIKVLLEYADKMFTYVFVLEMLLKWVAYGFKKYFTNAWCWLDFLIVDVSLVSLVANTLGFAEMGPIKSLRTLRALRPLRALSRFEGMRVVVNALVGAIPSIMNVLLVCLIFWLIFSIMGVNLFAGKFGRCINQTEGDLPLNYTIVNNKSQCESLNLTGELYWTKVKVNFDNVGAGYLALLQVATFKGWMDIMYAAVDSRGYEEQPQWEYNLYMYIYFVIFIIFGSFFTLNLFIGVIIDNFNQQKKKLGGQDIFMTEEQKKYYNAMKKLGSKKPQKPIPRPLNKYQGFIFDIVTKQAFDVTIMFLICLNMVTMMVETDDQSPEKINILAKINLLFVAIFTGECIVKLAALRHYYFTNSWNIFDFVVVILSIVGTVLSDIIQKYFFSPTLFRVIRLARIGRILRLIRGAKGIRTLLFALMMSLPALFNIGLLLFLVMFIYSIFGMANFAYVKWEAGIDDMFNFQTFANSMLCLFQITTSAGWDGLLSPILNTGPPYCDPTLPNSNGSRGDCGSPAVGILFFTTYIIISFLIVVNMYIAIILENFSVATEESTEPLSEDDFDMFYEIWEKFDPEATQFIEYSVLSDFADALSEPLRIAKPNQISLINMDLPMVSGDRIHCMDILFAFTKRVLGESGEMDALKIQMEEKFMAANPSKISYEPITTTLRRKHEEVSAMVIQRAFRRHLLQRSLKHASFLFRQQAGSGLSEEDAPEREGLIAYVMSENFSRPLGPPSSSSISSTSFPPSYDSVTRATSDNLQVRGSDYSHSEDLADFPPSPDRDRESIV
molecule,measurement,setting,value
O=C(O)CN(CC(=O)O)c1ccccc1OCCOc1ccccc1N(CC(=O)O)CC(=O)O [BAPTA],effect on CNO-evoked increase in ILATE,[1]; 100 nM CNO,not sensitive
same,effect on CNO-evoked leftwards shifts in V½ACT and V½SSI,[1]; 100 nM CNO,not sensitive
same,"effect on CNO (M3q activation) effects on V½ACT, V½SSI and ILATE",[1]; 100 nM CNO,not affected; also recorded: not blocked
"C[N+]1([O-])CCN(C2=Nc3cc(Cl)ccc3Nc3ccccc32)CC1 [CNO, clozapine N-oxide]",time to complete uncoupling of iRFP-PHPLCδ1 from the membrane,[2],≤ 200 s
same,fold increase in ILATE,[1]; 100 nM CNO vs control,16 fold
same,ILATE,"[1]; 100 nM CNO, 400 ms pulse to −20 mV, control 0.22%",~3.9 % of peak INa
same,peak current-density,"[1]; 100 nM CNO, at −35 mV, before −220±5",−266±4 pA/pF
same,leftward shift in V½ACT,"[1]; 100 nM CNO, paired before/after",−10±5 mV
same,voltage of peak INa (I-V relationship),"[1]; 100 nM CNO, before CNO −25 mV",−35 mV
same,V½SSI,"[1]; 100 nM CNO, before −81.4±2",−89.7±2 mV
COc1ccc2c(c1)CC[C@@H]1[C@@H]2CC[C@]2(C)[C@@H](NCCCCCCN3C(=O)C=CC3=O)CC[C@@H]12 [U73122],uncoupling of iRFP-PHPLCδ1 after M3q activation,[2]; U73122 5 μM,does not occur
same,effect on CNO-evoked increase in ILATE,[1]; 100 nM CNO,precluded
same,effect on CNO-evoked leftwards shifts in V½ACT and V½SSI,[1]; 100 nM CNO,precluded
same,"effect on CNO (M3q activation) effects on V½ACT, V½SSI and ILATE",[1]; 100 nM CNO,blocked; also recorded: abolished
CN[C@@H]1C[C@H]2O[C@@](C)([C@@H]1OC)n1c3ccccc3c3c4c(c5c6ccccc6n2c5c31)C(=O)NC4 [staurosporine],effect on CNO-evoked increase in ILATE,[1]; 100 nM CNO,not sensitive
same,effect on CNO-evoked leftwards shifts in V½ACT and V½SSI,[1]; 100 nM CNO,not sensitive
same,"effect on CNO (M3q activation) effects on V½ACT, V½SSI and ILATE",[1]; 100 nM CNO,not affected; also recorded: not blocked
"angiotensin II (DRVYIHPF; Angiotensin-2; UniProt P01019 25-32, looked up) [Ang II, agonist of the Gαq-coupled AT1 receptor (Tocris)]",leftward shift in V½ACT,[3],−7 mV
same,leftward shift in V½SSI,[3],−7 mV
same,peak INa,[3],increased; also recorded: elevated
same,time over which ILATE increased,[3],~250 s
same,ILATE,[3]; before 0.15±0.1,3.6±0.3 % of IPEAK
